Measured values from patent US20240358693A1, “METHODS OF TREATING PAIN” (Aisa Pharma, Inc., priority 2023, published 2024).

Tested on: participants with SSc-RP
Assay: Scleroderma Health Assessment Questionnaire (SHAQ): disability indices and visual analog scales
Format: in vivo, human
Outline: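 Participants with SSc-RP completed the SHAQ at screening and each in-clinic visit. Standard and alternative disability indices (eight categories, 0–3; standard adjusts for aids/assistance) plus Raynaud's VAS on interference over the past 7 days. Reported as absolute change from baseline to end of each dosing period.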

[1] = Cilnidipine 10 mg, Day 12, PP Population Part A, SSc patients
[2] = Cilnidipine 10 mg, Day 12, PP Population, Part A
[3] = Cilnidipine 10 mg, PP Population Part A, SSc patients
[4] = Cilnidipine 20 mg (N = 3), Modified ITT, Part A
[5] = Cilnidipine 20 mg (N = 3), patients with diagnosis of SSc, sensitivity analysis, Modified ITT, Part A
[6] = Cilnidipine 20 mg (n = 3), Table R
[7] = Cilnidipine 20 mg (n = 3), mITT population
[8] = Cilnidipine 20 mg, Day 12, PP Population Part A, SSc patients
[9] = Cilnidipine 20 mg, Day 12, PP Population, Part A
[10] = Cilnidipine 20 mg, PP Population Part A, SSc patients

COCCOC(=O)C1=C(C)NC(C)=C(C(=O)OC/C=C/c2ccccc2)C1c1cccc([N+](=O)[O-])c1 (stereo not drawn) [Cilnidipine, cilnidipine]
SHAQ Visual Analogue Scale - Finger Ulcers, Change from Baseline, Mean [1]: −0.425 | SHAQ Visual Analogue Scale - Finger Ulcers, Change from Baseline, Median [1]: −0.350 | SHAQ Visual Analogue Scale - Finger Ulcers, Percent Change from Baseline, Mean [1]: −69.44% | SHAQ Visual Analogue Scale - Finger Ulcers, Percent Change from Baseline, Median [1]: −69.44% | SHAQ Visual Analogue Scale - Intestinal Problems, Change from Baseline, Mean [1]: −1.875 | SHAQ Visual Analogue Scale - Intestinal Problems, Change from Baseline, Median [1]: −1.550 | SHAQ Visual Analogue Scale - Intestinal Problems, Percent Change from Baseline, Mean [1]: −77.37% | SHAQ Visual Analogue Scale - Intestinal Problems, Percent Change from Baseline, Median [1]: −88.00% | SHAQ Visual Analogue Scale - Overall Disease Severity, Change from Baseline, Mean [1]: −0.900 | SHAQ Visual Analogue Scale - Overall Disease Severity, Change from Baseline, Median [1]: −0.950 | SHAQ Visual Analogue Scale - Overall Disease Severity, Percent Change from Baseline, Mean [1]: −56.96% | SHAQ Visual Analogue Scale - Overall Disease Severity, Percent Change from Baseline, Median [1]: −44.12% | SHAQ Visual Analogue Scale - Pain, Change from Baseline, Mean [1]: −0.100 | SHAQ Visual Analogue Scale - Pain, Change from Baseline, Median [1]: 0.000 | SHAQ Visual Analogue Scale - Pain, Percent Change from Baseline, Mean [1]: −9.88% | SHAQ Visual Analogue Scale - Pain, Percent Change from Baseline, Median [1]: 0.00% | SHAQ Visual Analogue Scale - Raynaud's, Change from Baseline, Mean [1]: 0.325 | SHAQ Visual Analogue Scale - Raynaud's, Change from Baseline, Median [1]: 0.350 | SHAQ Visual Analogue Scale - Raynaud's, Percent Change from Baseline, Mean [1]: 11.36% | SHAQ Visual Analogue Scale - Raynaud's, Percent Change from Baseline, Median [1]: −2.27% | SHAQ Alternative Disability Index: Change from Baseline, Mean [2]: 0.063 | SHAQ Alternative Disability Index: Change from Baseline, Median [2]: 0.000 | SHAQ Alternative Disability Index: In-Clinic Visit (Day 12), Mean [2]: 0.563 | SHAQ Alternative Disability Index: In-Clinic Visit (Day 12), Median [2]: 0.500 | SHAQ Alternative Disability Index: Percent Change from Baseline, Mean [2]: 15.87% | SHAQ Alternative Disability Index: Percent Change from Baseline, Median [2]: 15.87% | SHAQ Standard Disability Index: Change from Baseline, Mean [2]: 0.000 | SHAQ Standard Disability Index: Change from Baseline, Median [2]: 0.000 | SHAQ Standard Disability Index: In-Clinic Visit (Day 12), Mean [2]: 0.656 | SHAQ Standard Disability Index: In-Clinic Visit (Day 12), Median [2]: 0.563 | SHAQ Standard Disability Index: Percent Change from Baseline, Mean [2]: 0.00% | SHAQ Standard Disability Index: Percent Change from Baseline, Median [2]: 0.00% | SHAQ Visual Analogue Scale - Pain: Change from Baseline, Mean [2]: −0.100 | SHAQ Visual Analogue Scale - Pain: Change from Baseline, Median [2]: 0.000 | SHAQ Visual Analogue Scale - Pain: In-Clinic Visit (Day 12), Mean [2]: 1.875 | SHAQ Visual Analogue Scale - Pain: In-Clinic Visit (Day 12), Median [2]: 1.950 | SHAQ Visual Analogue Scale - Pain: Percent Change from Baseline, Mean [2]: −9.88% | SHAQ Visual Analogue Scale - Pain: Percent Change from Baseline, Median [2]: 0.00% | SHAQ Visual Analogue Scale - Breathing Problems, In-Clinic Visit (Day 12), Mean [3]: 1.575 | SHAQ Visual Analogue Scale - Breathing Problems, In-Clinic Visit (Day 12), Median [3]: 0.000 | SHAQ Visual Analogue Scale - Finger Ulcers, In-Clinic Visit (Day 12), Mean [3]: 0.275 | SHAQ Visual Analogue Scale - Finger Ulcers, In-Clinic Visit (Day 12), Median [3]: 0.000 | SHAQ Visual Analogue Scale - Intestinal Problems, In-Clinic Visit (Day 12), Mean [3]: 1.100 | SHAQ Visual Analogue Scale - Intestinal Problems, In-Clinic Visit (Day 12), Median [3]: 0.300 | SHAQ Visual Analogue Scale - Overall Disease Severity, In-Clinic Visit (Day 12), Mean [3]: 1.825 | SHAQ Visual Analogue Scale - Overall Disease Severity, In-Clinic Visit (Day 12), Median [3]: 1.050 | SHAQ Visual Analogue Scale - Pain, In-Clinic Visit (Day 12), Mean [3]: 1.875 | SHAQ Visual Analogue Scale - Pain, In-Clinic Visit (Day 12), Median [3]: 1.950 | SHAQ Visual Analogue Scale - Raynaud's, In-Clinic Visit (Day 12), Mean [3]: 1.925 | SHAQ Visual Analogue Scale - Raynaud's, In-Clinic Visit (Day 12), Median [3]: 1.700 | SHAQ Overall Severity: Baseline, Mean [4]: 2.667 | SHAQ Overall Severity: Baseline, Median [4]: 2.900 | SHAQ Overall Severity: Change from Baseline, Mean [4]: −1.633, | SHAQ Overall Severity: Change from Baseline, Median [4]: −1.600 | SHAQ Overall Severity: Day 12, Mean [4]: 1.033 | SHAQ Overall Severity: Day 12, Median [4]: 1.200 | SHAQ Overall Severity: Percent Change from Baseline, Mean [4]: −62.64% | SHAQ Overall Severity: Percent Change from Baseline, Median [4]: −60.00% | SHAQ Standard Disability Index: Baseline, Mean [5]: 0.250 | SHAQ Standard Disability Index: Baseline, Median [5]: 0.375 | SHAQ Standard Disability Index: Change from Baseline, Mean [5]: −0.125 | SHAQ Standard Disability Index: Change from Baseline, Median [5]: −0.125 | SHAQ Standard Disability Index: Day 12, Mean [5]: 0.125 | SHAQ Standard Disability Index: Day 12, Median [5]: 0.125 | SHAQ Standard Disability Index: Percent Change from Baseline, Mean [5]: −50.00% | SHAQ Standard Disability Index: Percent Change from Baseline, Median [5]: −50.00% | Alternative disability index, improvement [6]: 42% improvement | Standard disability index, improvement [6]: 50% improvement | VAS - Breathing problems, improvement [6]: 75% improvement* | VAS - Raynaud's, improvement [6]: 55% improvement | VAS Overall Disease Severity, improvement [6]: 63% improvement | VAS- PAIN, improvement (Cilnidipine 20 mg (n = 3), Table R, baseline 2.17 on a 0-10 VAS): 53% improvement* | SHAQ % change VAS Raynauds [7]: −49% | SHAQ % change in Alternative Disability Index [7]: −42% | SHAQ % change in Pain [7]: −53% | SHAQ % change in Standard Disability Index [7]: −50% | SHAQ % change overall SSc Disease Severity [7]: −63% | SHAQ % improvement in Breathing (median) [7]: 67% | SHAQ % improvement in VAS Digital Ulcers [7]: 35% | SHAQ Visual Analogue Scale - Breathing Problems, Change from Baseline, Mean [8]: −0.475 | SHAQ Visual Analogue Scale - Breathing Problems, Change from Baseline, Median [8]: −0.250 | SHAQ Visual Analogue Scale - Breathing Problems, Percent Change from Baseline, Mean [8]: 3.73% | SHAQ Visual Analogue Scale - Breathing Problems, Percent Change from Baseline, Median [8]: −17.54% | SHAQ Visual Analogue Scale - Finger Ulcers, Change from Baseline, Mean [8]: −0.933 | SHAQ Visual Analogue Scale - Finger Ulcers, Change from Baseline, Median [8]: 0.000 | SHAQ Visual Analogue Scale - Finger Ulcers, Percent Change from Baseline, Mean [8]: 35.29% | SHAQ Visual Analogue Scale - Finger Ulcers, Percent Change from Baseline, Median [8]: 35.29% | SHAQ Visual Analogue Scale - Intestinal Problems, Change from Baseline, Mean [8]: 0.150 | SHAQ Visual Analogue Scale - Intestinal Problems, Change from Baseline, Median [8]: 0.150 | SHAQ Visual Analogue Scale - Intestinal Problems, Percent Change from Baseline, Mean [8]: −10.00% | SHAQ Visual Analogue Scale - Intestinal Problems, Percent Change from Baseline, Median [8]: 30.00% | SHAQ Visual Analogue Scale - Overall Disease Severity, Change from Baseline, Mean [8]: −2.000 | SHAQ Visual Analogue Scale - Overall Disease Severity, Change from Baseline, Median [8]: −1.700 | SHAQ Visual Analogue Scale - Overall Disease Severity, Percent Change from Baseline, Mean [8]: −64.20% | SHAQ Visual Analogue Scale - Overall Disease Severity, Percent Change from Baseline, Median [8]: −64.44% | SHAQ Visual Analogue Scale - Pain, Change from Baseline, Mean [8]: −0.650 | SHAQ Visual Analogue Scale - Pain, Change from Baseline, Median [8]: −0.650 | SHAQ Visual Analogue Scale - Pain, Percent Change from Baseline, Mean [8]: −34.56% | SHAQ Visual Analogue Scale - Pain, Percent Change from Baseline, Median [8]: −51.06% | SHAQ Visual Analogue Scale - Raynaud's, Change from Baseline, Mean [8]: −1.200 | SHAQ Visual Analogue Scale - Raynaud's, Change from Baseline, Median [8]: −1.050 | SHAQ Visual Analogue Scale - Raynaud's, Percent Change from Baseline, Mean [8]: −41.11% | SHAQ Visual Analogue Scale - Raynaud's, Percent Change from Baseline, Median [8]: −38.67% | SHAQ Alternative Disability Index: Change from Baseline, Mean [9]: 0.000 | SHAQ Alternative Disability Index: Change from Baseline, Median [9]: −0.063 | SHAQ Alternative Disability Index: In-Clinic Visit (Day 12), Mean [9]: 0.219 | SHAQ Alternative Disability Index: In-Clinic Visit (Day 12), Median [9]: 0.188 | SHAQ Alternative Disability Index: Percent Change from Baseline, Mean [9]: 5.56% | SHAQ Alternative Disability Index: Percent Change from Baseline, Median [9]: −33.33% | SHAQ Standard Disability Index: Change from Baseline, Mean [9]: −0.063 | SHAQ Standard Disability Index: Change from Baseline, Median [9]: −0.063 | SHAQ Standard Disability Index: In-Clinic Visit (Day 12), Mean [9]: 0.281 | SHAQ Standard Disability Index: In-Clinic Visit (Day 12), Median [9]: 0.188 | SHAQ Standard Disability Index: Percent Change from Baseline, Mean [9]: −26.67% | SHAQ Standard Disability Index: Percent Change from Baseline, Median [9]: −33.33% | SHAQ Visual Analogue Scale - Pain: Change from Baseline, Mean [9]: −0.650 | SHAQ Visual Analogue Scale - Pain: Change from Baseline, Median [9]: −0.650 | SHAQ Visual Analogue Scale - Pain: In-Clinic Visit (Day 12), Mean [9]: 1.875 | SHAQ Visual Analogue Scale - Pain: In-Clinic Visit (Day 12), Median [9]: 1.400 | SHAQ Visual Analogue Scale - Pain: Percent Change from Baseline, Mean [9]: −34.56% | SHAQ Visual Analogue Scale - Pain: Percent Change from Baseline, Median [9]: −51.06% | SHAQ Visual Analogue Scale - Breathing Problems, In-Clinic Visit (Day 12), Mean [10]: 0.850 | SHAQ Visual Analogue Scale - Breathing Problems, In-Clinic Visit (Day 12), Median [10]: 0.450
